This note sets out measurements from PubChem BioAssay (NCI).

Molecules are shown by their SMILES. “And” between values parts separate entries of the source, which are not always exact repeats. Equal entries are not always repeated.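 Compound exposure: 48 hours, 5 concentrations, 96-well plates. Abbreviation: GI50, concentration required for 50% inhibition of growth. The concentration for full growth arrest is given as TGI.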

Assay in all cases: NCI anticancer screen, dose series, 48 h
For assay [1], the system named is NCI-H23 lung.
Assay [2] has as its system TK-10 renal.
Assay [3] has as its system ACHN renal.
For assay [4], the system named is MALME-3M melanoma.
Assay [5] concerns MOLT-4 leukemia.
The test system of assay [6] is NCI-H522 lung.
Assay [7] deals with NCI-H226 lung.
For assay [8], the system named is M14 melanoma.
Assay [9] relates to SK-OV-3 ovarian.

As to `CNC(=S)/N=C(\N)N(C)C`, the TGI was more than 10 µM in [1]; more than 100 µM in [2]; more than 100 µM in assay [3]; more than 100 µM in assay [4]; more than 100 µM in [5]; more than 100 µM in assay [6]. For the same compound, the TGI in [7], in [8] and in [9] was more than 100 µM each time.

On to `O=C1c2ccccc2C(=O)C1(O)c1c[nH]c2ccccc12`, for which the TGI in assay [1], in assay [2], in assay [4], in assay [5], in [6] and in assay [8] was more than 100 µM each time. Further, the TGI in assay [9] was more than 100 µM.

As to `COc1cc(Cc2nccc3cc(OC)c(OC)cc23)c(C(C)=O)cc1OC`, the GI50 is 67.1 µM in assay [1]; 72.1 µM and 22.6 µM in assay [4]; more than 750 µM in assay [5]; 21.5 µM in assay [6]. The TGI in [1] is 300 µM and > 750 µM; in assay [2] it was 341 µM; in assay [3], 429 µM; in assay [4], 64.1 µM and 158 µM; in [5] it was more than 750 µM; in assay [6], 300 µM. In addition, the TGI in assay [8] is more than 750 µM; in assay [9] it was 254 µM.

Take `COc1cc2[nH]c3c(c2cc1OC)CCN[C@]31CC[C@]2(CC3c4c(cc(OC)c(O)c42)CCN3C)C[C@H]1OC` (stereo partly drawn): the TGI in assay [1] was more than 100 µM; in assay [2], 51.1 µM; in assay [3] it was 62.4 µM; in assay [4], 36.3 µM; in assay [5], 33.8 µM; in assay [7], more than 100 µM. Also, the TGI turned out to be 29.5 µM in assay [8] and 59.1 µM in assay [9].

As to `Cc1[nH]c(=O)nc2[nH][nH]c(=O)c12`, the TGI in assay [1], in [2], in assay [3], in [4], in assay [5] and in assay [6] was more than 100 µM each time. Moreover, the TGI in [7], in assay [8] and in assay [9] was more than 100 µM throughout.

In the case of `O=C(O)CNS(=O)(=O)c1ccc(NC(=O)c2ccc([N+](=O)[O-])cc2)cc1`, the TGI in assay [1], in assay [2], in [3], in assay [4], in assay [5] and in assay [6] was more than 100 µM in each case. The TGI in assay [7], in assay [8] and in [9] was more than 100 µM throughout.

As for `O=C(c1cccc2ccccc12)N1CCC(C2CCN(C(=O)c3cccc4ccccc34)CC2)CC1`, the TGI in assay [1], in assay [2], in assay [3], in assay [4], in [5] and in assay [6] was more than 100 µM in each case. Further, the TGI in assay [7], in assay [8] and in assay [9] was more than 100 µM in each case.

On to `CCCN(CCC)C(=O)c1c([N+](=O)[O-])cc(C(F)(F)F)cc1[N+](=O)[O-]`, for which the TGI was 73.3 µM in assay [1]; more than 100 µM in [2]; more than 100 µM in [3]; more than 100 µM in [5]; 60.5 µM in assay [6]; 65.3 µM in assay [7]. Besides, the TGI in [8] and in assay [9] was more than 100 µM each time.

On to `Cc1nnc(NS(=O)(=O)c2ccc(N=Nc3cc(N=Nc4ccc(S(=O)(=O)Nc5nnc(C)s5)cc4)c4c(NC(=O)C(Cl)Cl)cccc4c3OC(=O)C(Cl)Cl)cc2)s1` (tested in a mixture with another compound), for which the TGI stood at 49.5 µM in assay [1]; 95.6 µM in [2]; 65.3 µM in assay [4]; 33 µM in assay [5]; 64.7 µM in assay [6]; 73.4 µM in assay [8].

Regarding `O=C(/C=C/c1ccc(Cl)c(Cl)c1)c1ccc2ccccc2c1`, the TGI in assay [1], in assay [2], in [3], in assay [4], in assay [5] and in [6] was more than 100 µM throughout. Moreover, the TGI in [7], in assay [8] and in [9] was more than 100 µM in each case.

Regarding `[N-]=[N+]=C1C(=O)NN=C1c1ccccc1`, the TGI in assay [1], in [2], in assay [3], in assay [4], in assay [5] and in [6] was more than 100 µM throughout. The TGI in assay [7], in assay [8] and in [9] was more than 100 µM throughout.

As for `COc1ccc(C(=O)c2cc(C)c(OC)c(C)c2)c(OC)c1O`, the GI50 is 0.0879 µM in assay [1]; 25 µM in assay [2]; 0.0566 µM in [3]; 0.0739 µM in assay [4]; 0.0448 µM in assay [5]; less than 0.0189 µM in assay [6]. Further, the GI50 in assay [7] was 2.71 µM; in [9], 0.228 µM. The TGI in [1] was more than 100 µM; in assay [2] it was more than 100 µM; in assay [3], more than 100 µM; in assay [4] it was more than 100 µM; in assay [5] it was more than 100 µM; in assay [7] it was 9.06 µM. The TGI in assay [9] was more than 100 µM.

As for `CN(Cc1ccccc1)C(=O)c1ccccc1C(=O)O`, the TGI in assay [1], in assay [2], in [3], in assay [4], in assay [5] and in assay [6] was more than 100 µM each time. The TGI in assay [7], in assay [8] and in [9] was more than 100 µM each time.

`CCOC(=O)C(=O)Nc1ccccc1CC`: the TGI in assay [1], in [2], in assay [3], in assay [4], in [5] and in [6] was more than 100 µM throughout. Moreover, the TGI in assay [7], in [8] and in [9] was more than 100 µM each time.

On to `CCCC1=C(CC)C(C(=O)Nc2c(C)cccc2C)=NC(S)N1` (stereo not drawn), for which the TGI in [1], in [2], in assay [3], in [4], in assay [5] and in [6] was more than 100 µM throughout. The TGI in assay [7] and in assay [8] was more than 100 µM in each case.

Regarding `O=C(CCc1nc(=S)[nH][nH]1)Nc1ccccc1Cl`, the TGI in assay [1], in assay [2], in assay [3], in [4], in assay [5] and in assay [6] was more than 100 µM throughout. In addition, the TGI in [7], in assay [8] and in [9] was more than 100 µM each time.

Take `Clc1cc(Cl)c2ns[s+]c2c1Cl`: the TGI in assay [1] is 85.2 µM; in assay [2], more than 100 µM; in assay [3] it was more than 100 µM; in assay [4], more than 100 µM; in assay [5], more than 100 µM; in assay [6] it was more than 100 µM. For the same compound, the TGI in assay [7], in assay [8] and in assay [9] was more than 100 µM in each case.

Take `CCOC(=O)N[C@@H]1C(CC(=O)OC)O[C@H]2OC(C)(C)O[C@H]21` (stereo partly drawn): the TGI in assay [1], in [3], in [4], in [5], in assay [7] and in [8] was more than 100 µM each time. In [9], the TGI is more than 100 µM.

For `CC(=O)C1Cn2c(nc3ccccc32)C[Se]1` (stereo not drawn), the TGI in [1] was 7.29 µM; in assay [2], 13 µM; in assay [3], 11.4 µM; in [4] it was 5.83 µM; in assay [5] it was 6.79 µM; in [6], 10.3 µM. The TGI in assay [7] came to 12.5 µM; in assay [8], 4.96 µM; in assay [9] it was 34 µM.

As to `COC(=O)C12CC3CC(CC(C(=O)O)(C3)C1)C2`, the TGI in [1], in assay [2], in [3], in assay [5], in assay [6] and in assay [8] was more than 100 µM in each case. Besides, the TGI in assay [9] is more than 100 µM.

`COc1ccc2c3c([nH]c2c1[N+](=O)[O-])C(C)N(C)CC3` (stereo not drawn): the TGI in assay [1], in assay [2], in assay [3], in [4], in assay [5] and in [6] was more than 100 µM in each case. Moreover, the TGI in assay [7], in assay [8] and in assay [9] was more than 100 µM in each case.

As for `CCCCNC1CCCCC[C@H]1O` (stereo partly drawn), the TGI in [1], in [2], in assay [3], in assay [5], in assay [6] and in assay [7] was more than 100 µM in each case. The TGI in assay [8] and in [9] was more than 100 µM each time.

Regarding `C=C(C)CCN[Si](c1ccccc1)(c1ccccc1)C(C)(C)C`, the TGI in assay [1] was 45.3 µM; in assay [2] it was 68.3 µM; in [3], more than 100 µM; in assay [4], 36.7 µM; in [5] it was 52.6 µM; in [6], 44.3 µM. Besides, the TGI in [7] is 25.5 µM; in assay [8], 34.4 µM; in assay [9], 69 µM.

For `COC(=O)C(CC(=O)Nc1ccc(C)cc1)C(=O)C(=O)Nc1c(C(C)C)cccc1C(C)C` (stereo not drawn), the TGI in assay [1], in assay [2], in assay [3], in assay [4], in [5] and in [6] was more than 100 µM in each case. In addition, the TGI in assay [7], in assay [8] and in assay [9] was more than 100 µM in each case.

On to `COc1cc(/C=C/c2ccc(OC)c(O)c2)cc(OC)c1`, for which the TGI was 12.5 µM in assay [1]; 91.4 µM in [2]; 41.2 µM in assay [3]; 38 µM in assay [4]; 15.7 µM in assay [5]; 4.49 µM in assay [6]. The values for the TGI in assay [7], in [8] and in assay [9] were 16.7 µM, 12.8 µM and 86.6 µM, respectively.

For the compound `COC(=O)[C@@]12C(=O)C=CC(=O)C1C1C(=CC2C)OC2OC3(CCCCC3)OC21` (stereo partly drawn), the TGI was determined as 39.9 µM in [1]; 31.6 µM in assay [2]; 30.6 µM in assay [3]; 37.8 µM in assay [4]; 37.5 µM in assay [5]; 33.7 µM in [7]. The TGI in [8] is 33.6 µM; in assay [9] it was 33.9 µM.

As for `Cc1cc(C)c(NC(=O)c2sc3nc4c(cc3c2N)C(=O)CCC4)c(C)c1`, the GI50 in assay [1] is 3.9 µM; in [2], 4.5 µM; in [3], 6.11 µM; in assay [4] it was 1.83 µM; in [5], 5.68 µM; in assay [6], 0.6 µM. Also, the GI50 was 5.81 µM in [7], 2.31 µM in [8] and 2.07 µM in assay [9]. Besides, the TGI was more than 100 µM in assay [1]; more than 87.9 µM in assay [2]; more than 100 µM in assay [3]; more than 100 µM in assay [4]; more than 100 µM in assay [5]; 3.06 µM in assay [6]. Besides, the TGI in assay [7], in [8] and in [9] was more than 100 µM throughout.

Consider `c1cnn(CN(Cn2cccn2)Cn2cccn2)c1`, for which the TGI in [1], in [2], in assay [3], in assay [5], in assay [6] and in assay [8] was more than 100 µM throughout. The compound also displayed a TGI in [9] of more than 100 µM.

In the case of `c1ccc(C2N3CCCCC3[C@@H]3c4[nH]c5ccccc5c4CCN23)nc1` (stereo partly drawn), the TGI in [1], in assay [2], in assay [3], in [5], in assay [8] and in [9] was more than 100 µM throughout.

Take `O=C(N/N=C/c1cc(Br)ccc1O)N/N=C/c1cc(Br)ccc1O`: the TGI in [1], in [2], in [3], in [4], in assay [5] and in assay [6] was more than 100 µM in each case. Further, the TGI is 9.64 µM in assay [7] and more than 100 µM in [9].
